Test results taken from patent publication US9873693B2 (Sunesis Pharmaceuticals, Inc., priority 2006, dated 2018).

How the values were obtained:
phosphorylated PDK1 = phosphorylated PDK1 (Homo sapiens (Human), UniProt O15530); test: PDK1 kinase assay (coupled PDK1/AKT/FAM-crosstide, IMAP); format: biochemical; details: 0.5 nM phosphorylated PDK1, 24 μM ATP; read-out: Inhibition of phospo-PDK1 in vitro IC50
Phospho-T308 Akt = Phospho-T308 Akt detection using immunoblot (western blot) in PC-3 cells; format: cell-based; details: 2 μM or 5 μM, concentration not given
Procedure, shortened: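 PC-3 prostate cells, cultured overnight in F12K plus 10% FBS, were treated for 2 h at 37 °C in serum-free medium with compound A (1000× DMSO dilutions). Lysate protein was immunoblotted with anti-phospho-Akt Thr308. Bands were quantified by background-subtracted densitometry, giving EC50 by non-linear regression and percent decrease at 2 μM and 5 μM.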

full-length PDK1 = full-length PDK1 (Homo sapiens (Human), UniProt O15530); test: PDK phosphorylation of AKT and PKC-PIFtide in presence of PIP3 vesicles; format: biochemical; details: substrates PKC-PIFtide vs AKT2
Procedure: PDK phosphorylation of two different substrates, AKT and PKC-PIFtide, was measured in presence of pre-formed phophoinositol lipid PIP3 vesicles. 5 nM full-length PDK1 and was incubated with 100 nM substrate (unphosphorylated, full-length AKT2 or PKC-PIFtide, Invitrogen cat#P2925) in presence of test compound or DMSO at room temperature for 3 hours. Final buffer conditions were 10 mM Tris pH 7.5 buffer containing 10 mM MgCl2, 0.002% Triton X-100, 1 mM DTT, 0.2 mg/ml BSA, 10 uM PtdIns(3,4,5)P3 (Matreya, Inc), 100 uM DOPC:DOPS (Avanti Polar Lipids), and 0.5 uCi γ^33P-ATP (3000 Ci/mmol, Perkin-Elmer.)
Kinase reactions were stopped with addition of 50 uM non-labelled ATP and 5 mM EDTA, then acidified with 0.5% final concentration phosphoric acid. Labeled proteins were collected in Whatman P81 filter plates and washed with three 150 ul volumes of 0.5% phosphoric acid.
Lipid vesicles were pre-formed as follows. 15 mg (3 ampules) DOPC:DOPS was resuspended in 898 ul 10 mM HEPES pH 7.4. 1 mg PIP3 was resuspended in 1000 ul 10 mM HEPES pH 7.4. 964 ul of PIP3 was mixed with 800 ul DOPC:DOPS and diluted with 18.2 ml 10 mM HEPES pH 7.4 and mixed by vortexing. The lipid mixture was subjected to 5 cycles of freeze/thaw using liquid nitrogen and a 50° C. water bath. Aliquot of lipids were flash frozen and stored at −20° C.

Chain of phosphorylated PDK1 (O15530 51-360): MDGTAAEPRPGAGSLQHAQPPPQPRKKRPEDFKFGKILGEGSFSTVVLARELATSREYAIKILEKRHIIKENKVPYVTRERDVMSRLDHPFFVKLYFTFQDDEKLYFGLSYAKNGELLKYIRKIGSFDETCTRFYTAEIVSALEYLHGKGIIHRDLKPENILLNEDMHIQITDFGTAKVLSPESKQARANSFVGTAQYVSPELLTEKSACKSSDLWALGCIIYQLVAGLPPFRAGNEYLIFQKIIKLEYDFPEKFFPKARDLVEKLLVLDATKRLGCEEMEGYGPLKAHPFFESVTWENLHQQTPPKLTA
Chain of full-length PDK1 (O15530 whole entry): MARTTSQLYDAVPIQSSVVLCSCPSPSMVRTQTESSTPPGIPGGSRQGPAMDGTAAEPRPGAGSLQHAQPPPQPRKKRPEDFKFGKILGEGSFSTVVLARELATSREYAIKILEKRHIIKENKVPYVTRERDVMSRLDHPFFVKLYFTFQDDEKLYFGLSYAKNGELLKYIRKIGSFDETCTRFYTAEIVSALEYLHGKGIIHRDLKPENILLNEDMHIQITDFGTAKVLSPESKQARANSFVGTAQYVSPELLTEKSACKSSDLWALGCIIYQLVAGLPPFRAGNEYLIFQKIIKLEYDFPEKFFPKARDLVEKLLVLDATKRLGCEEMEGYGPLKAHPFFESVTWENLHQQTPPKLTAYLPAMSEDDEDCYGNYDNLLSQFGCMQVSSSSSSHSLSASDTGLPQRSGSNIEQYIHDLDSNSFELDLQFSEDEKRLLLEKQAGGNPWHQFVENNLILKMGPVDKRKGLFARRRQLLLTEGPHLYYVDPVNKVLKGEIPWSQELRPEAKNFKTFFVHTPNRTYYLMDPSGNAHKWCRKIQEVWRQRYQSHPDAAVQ

## O=C(NCc1nc(-c2c[nH]c3ncccc23)cs1)c1cccn(Cc2ccc(F)c(F)c2)c1=O [Cpd 112]
Phosphorylated PDK1
  IC50: < 500 nM
Phospho-T308 Akt
  Percent Inhibition of phospho-Akt (308) By Western: d (inhibition of less than 25%)
full-length PDK1
  Ratio of PIP3 IC50 with PKCtide to PIP3 IC50 with AKT: 71.9
